Laboratory results as given in publication PMC8534150, “New Insights to Regulation of Fructose-1,6-bisphosphatase during Anoxia in Red-Eared Slider, Trachemys scripta elegans” (Biomolecules, 2021).

What was measured:
Assay in all cases: coupled phosphoglucoisomerase / glucose-6-phosphate dehydrogenase assay, NADP+ reduction at […] nm
Type in all cases: biochemical, Trachemys scripta elegans
FBPase (control liver) [1] = target: T1, FBPase (control liver); conditions: inhibitor, allosteric, pH 7.2 imidazole, 5 mM MgSO4, 0.2 mM NADP+, 22 °C, FBP 0.1 mM as optimal assay
T1 construct: gene FBP1; native, purified from liver of normoxic control turtles (phosphocellulose, CM cellulose); ~37 kDa on SDS-PAGE; band sent for mass spectrometry; tetramer in homology model

FBPase (anoxic liver) [2] = target: T2, FBPase (anoxic liver); conditions: inhibitor, allosteric; pH 7.2 imidazole, 5 mM MgSO4, 0.2 mM NADP+, 22 °C; FBP 0.1 mM as optimal assay; enzyme from anoxic liver
T2 construct: gene FBP1; native, purified from liver of 20 h anoxic turtles

FBPase (anoxic liver) [3] = target: T2, FBPase (anoxic liver); conditions: activation constant, activator, pH 7.2 imidazole, 5 mM MgSO4, 22 °C, enzyme from anoxic liver
FBPase (control liver) [4] = target: T1, FBPase (control liver); conditions: activation constant, activator, pH 7.2 imidazole, 5 mM MgSO4, 22 °C
FBPase (anoxic liver) [5] = system: T2, FBPase (anoxic liver); conditions: pH 7.2 imidazole, 5 mM MgSO4, 0.2 mM NADP+, 22 °C; paper states subsaturating FBP (0.24 µM); enzyme from anoxic liver
FBPase (control liver) [6] = system: T1, FBPase (control liver); conditions: pH 7.2 imidazole, 5 mM MgSO4, 0.2 mM NADP+, 22 °C; paper states subsaturating FBP (0.24 µM)

## Nc1ncnc2c1ncn2[C@@H]1O[C@H](COP(=O)(O)O)[C@@H](O)[C@H]1O [AMP]
FBPase (control liver) [1]
  IC50: 0.0061 ± 0.0001 mM
FBPase (anoxic liver) [2]
  IC50: 3.6 ± 0.3 µM

## Nc1ncnc2c1ncn2[C@@H]1O[C@H](COP(=O)(O)OP(=O)(O)O)[C@@H](O)[C@H]1O [ADP]
FBPase (control liver) [1]; text b33 prints mM for this value, table µM
  IC50: 0.0118 ± 0.0003 mM
FBPase (anoxic liver) [2]
  IC50: 8.3 ± 0.6 µM

## C[C@H](N)C(=O)O [Alanine]
FBPase (anoxic liver) [3]
  EC50: 3.3 ± 0.1 µM
FBPase (control liver) [4]
  EC50: 2.85 ± 0.24 µM

## O=P(O)(O)OC[C@H]1OC(O)(COP(=O)(O)O)[C@@H](O)[C@@H]1O (stereo partly drawn) [FBP]
FBPase (anoxic liver) [5]
  Km: 59.8 ± 5.2 µM
FBPase (control liver) [6]
  Km: 26.9 ± 3 µM

## Nc1ncnc2c1ncn2[C@@H]1O[C@H](COP(=O)(O)OP(=O)(O)OP(=O)(O)O)[C@@H](O)[C@H]1O [ATP.Mg]
FBPase (anoxic liver) [3]; ATP.Mg 1:1
  EC50: 25 ± 0.9 µM
FBPase (control liver) [4]; ATP.Mg 1:1
  EC50: 144 ± 7 µM

## C=C(OP(=O)(O)O)C(=O)O [PEP]
FBPase (anoxic liver) [3]
  EC50: 3.3 ± 0.2 µM
FBPase (control liver) [4]
  EC50: 0.33 ± 0.09 µM
